Results published in patent US12404283B2, “c-MYC mRNA translation modulators and uses thereof in the treatment of cancer” (Anima Biotech Inc., priority 2022, dated 2025).
Counter-ions that a name gives are not always drawn.

Tested on: c-Myc
Experiment: c-Myc immunofluorescence assay
Assay type: cell-based, human
Settings: A549 cells, 24 hours treatment, anti-c-Myc immunofluorescence
Protocol: A549 human non-small cell lung carcinoma cells were treated for 24 hours with increasing compound concentration, cells were fixed and stained with a nuclei stain (DAPI) and anti-c-Myc fluorescent antibody. The c-Myc signal was quantified by image analysis, and data was exported and analyzed using TIBCO Spotfire® (TIBCO Corporation). Dose response curves were generated and fitted with logaristic regression to calculate potency (EC50 values). Potency values are presented in Table 2 for all compounds and are shown for selected compounds (FIG. 4).
A549 cells were grown in 384-wells plates (Perkin Elmer, Cat. 6057300) for 48 hours, treated with compounds and then fixed for 20 min in 4% paraformaldehyde. After that permeabilization was done using 0.1% Triton X-100 in PBS for 20 min. Primary anti-c-Myc antibody (Abcam, ab32072) staining was performed for 90 min at room temperature. Cells then were washed twice with PBS and incubated with secondary antibody (Abcam, ab150075) for 90 min at room temperature. Nuclei were stained with DAPI for 10 min and washed twice with PBS.
Cell images were taken with Operetta (Perkin Elmer, USA), a wide-field fluorescence microscope at 20× magnification. After acquisition, the images were transferred to Columbus software (Perkin-Elmer) for image analysis. In Columbus, cells were identified by their nucleus, using the “Find Nuceli” module and cytoplasm was detected based on the secondary antibody channel. Subsequently, the fluorescent signal was enumerated in the identified cell region. Then data was exported to a data analysis and visualization software, Tibco Spotfire, USA.

Compound | Myc Efficacy (−LogEC50)
CO[C@H]1CN[C@@H](c2ccc(-c3cn4c(n3)sc3cc(C(=O)NCCCN5CCC(F)CC5)ccc34)c(F)c2)C1 (relative stereo) [Compound 523, 2-(2-fluoro-4-((cis)-4-methoxypyrrolidin-2-yl)phenyl)-N-(3-(4-fluoropiperidin-1-yl)propyl)benzo[d]imidazo[2,1-b]thiazole-7-carboxamide] | +++ (+++ ≥6)
CO[C@H]1CN[C@@H](c2ccc(-c3cn4c(n3)sc3cc(C(=O)NC5CCN(C)CC5)ccc34)c(F)c2)C1 (relative stereo) [Compound 532, 2-(2-fluoro-4-((cis)-4-methoxypyrrolidin-2-yl)phenyl)-N-(1-methylpiperidin-4-yl)benzo[d]imidazo[2,1-b]thiazole-7-carboxamide] | +++ (+++ ≥6)
O=C(NC1CCOCC1)c1ccc2c(c1)sc1nc(-c3ccc([C@H]4C[C@@H](O)CN4)cc3F)cn12 (relative stereo) [Compound 533, 2-(2-fluoro-4-((cis)-4-hydroxypyrrolidin-2-yl)phenyl)-N-(tetrahydro-2H-pyran-4-yl)benzo[d]imidazo[2,1-b]thiazole-7-carboxamide] | +++ (+++ ≥6)
O=C(NC1CCOCC1)c1ccc2c(c1)sc1nc(-c3ccc([C@H]4C[C@H](O)CN4)cc3F)cn12 (relative stereo) [Compound 538, 2-(2-fluoro-4-((trans)-4-hydroxypyrrolidin-2-yl)phenyl)-N-(tetrahydro-2H-pyran-4-yl)benzo[d]imidazo[2,1-b]thiazole-7-carboxamide] | +++ (+++ ≥6)
CNC(=O)c1ccc2c(c1)sc1nc(-c3ccc([C@H]4C[C@H](O)CN4)cc3F)cn12 (relative stereo) [Compound 544, 2-(2-fluoro-4-((trans)-4-hydroxypyrrolidin-2-yl)phenyl)-N-methylbenzo[d]imidazo[2,1-b]thiazole-7-carboxamide] | +++ (+++ ≥6)
O=C(N[C@@H]1CCOC1)c1ccc2c(c1)sc1nc(-c3ccc(C4CCCN4)cc3F)cn12 (stereo partly drawn) [524R, 2-(2-fluoro-4-(pyrrolidin-2-yl)phenyl)-N-((R)-tetrahydrofuran-3-yl)benzo[d]imidazo[2,1-b]thiazole-7-carboxamide] | ++ (++ ≥5 and <6)
O=C(N[C@H]1CCOC1)c1ccc2c(c1)sc1nc(-c3ccc(C4CCCN4)cc3F)cn12 (stereo partly drawn) [524S, 2-(2-fluoro-4-(pyrrolidin-2-yl)phenyl)-N-((S)-tetrahydrofuran-3-yl)benzo[d]imidazo[2,1-b]thiazole-7-carboxamide] | ++ (++ ≥5 and <6)
O=C(NCCCN1CCC(F)CC1)c1ccc2c(c1)sc1nc(-c3ccc([C@H]4CCCO4)cc3F)cn12 [Compound 428R, (R)-2-(2-fluoro-4-(tetrahydrofuran-2-yl)phenyl)-N-(3-(4-fluoropiperidin-1-yl)propyl)benzo[d]imidazo[2,1-b]thiazole-7-carboxamide] | ++ (++ ≥5 and <6)
O=C(NCCCN1CCC(F)CC1)c1ccc2c(c1)sc1nc(-c3ccc([C@@H]4CCCO4)cc3F)cn12 [Compound 428S, (S)-2-(2-fluoro-4-(tetrahydrofuran-2-yl)phenyl)-N-(3-(4-fluoropiperidin-1-yl)propyl)benzo[d]imidazo[2,1-b]thiazole-7-carboxamide] | +++ (+++ ≥6)
O=C1CC[C@H](c2ccc(-c3cn4c(n3)sc3cc(C(=O)NCCCN5CCC(F)CC5)ccc34)c(F)c2)N1 [Compound 432R, (R)-2-(2-fluoro-4-(5-oxopyrrolidin-2-yl)phenyl)-N-(3-(4-fluoropiperidin-1-yl)propyl)benzo[d]imidazo[2,1-b]thiazole-7-carboxamide] | +++ (+++ ≥6)
O=C1CC[C@@H](c2ccc(-c3cn4c(n3)sc3cc(C(=O)NCCCN5CCC(F)CC5)ccc34)c(F)c2)N1 [Compound 432S, (S)-2-(2-fluoro-4-(5-oxopyrrolidin-2-yl)phenyl)-N-(3-(4-fluoropiperidin-1-yl)propyl)benzo[d]imidazo[2,1-b]thiazole-7-carboxamide] | +++ (+++ ≥6)
O=C(NCCCN1CCC(F)CC1)c1ccc2c(c1)sc1nc(-c3ccc([C@H]4CCNC4)cc3F)cn12 [Compound 434R, (R)-2-(2-fluoro-4-(pyrrolidin-3-yl)phenyl)-N-(3-(4-fluoropiperidin-1-yl)propyl)benzo[d]imidazo[2,1-b]thiazole-7-carboxamide] | +++ (+++ ≥6)
O=C(NCCCN1CCC(F)CC1)c1ccc2c(c1)sc1nc(-c3ccc([C@@H]4CCNC4)cc3F)cn12 [Compound 434S, (S)-2-(2-fluoro-4-(pyrrolidin-3-yl)phenyl)-N-(3-(4-fluoropiperidin-1-yl)propyl)benzo[d]imidazo[2,1-b]thiazole-7-carboxamide] | +++ (+++ ≥6)
Cc1c(-c2ccc([C@H]3CCCN3)cc2F)nc2sc3cc(C(=O)NCCCN4CCC(F)CC4)ccc3n12 [Compound 464R, (R)-2-(2-fluoro-4-(pyrrolidin-2-yl)phenyl)-N-(3-(4-fluoropiperidin-1-yl)propyl)-3-methylbenzo[d]imidazo[2,1-b]thiazole-7-carboxamide dihydrochloride] | +++ (+++ ≥6)
Cc1c(-c2ccc([C@@H]3CCCN3)cc2F)nc2sc3cc(C(=O)NCCCN4CCC(F)CC4)ccc3n12 [Compound 464S, (S)-2-(2-fluoro-4-(pyrrolidin-2-yl)phenyl)-N-(3-(4-fluoropiperidin-1-yl)propyl)-3-methylbenzo[d]imidazo[2,1-b]thiazole-7-carboxamide dihydrochloride] | +++ (+++ ≥6)
NC1(c2ccc(-c3cn4c(n3)sc3cc(C(=O)NCCCN5CCC(F)CC5)ccc34)c(F)c2)CC1 [Compound 474, 2-(4-(1-aminocyclopropyl)-2-fluorophenyl)-N-(3-(4-fluoropiperidin-1-yl)propyl)benzo[d]imidazo[2,1-b]thiazole-7-carboxamide] | +++ (+++ ≥6)
O=C(NCCCN1CCC(F)CC1)c1ccc2c(c1)sc1nc(-c3ccc(C4CCCN4)c(F)c3F)cn12 (centres unmarked) [Compound 476, 2-(2,3-difluoro-4-(pyrrolidin-2-yl)phenyl)-N-(3-(4-fluoropiperidin-1-yl)propyl)benzo[d]imidazo[2,1-b]thiazole-7-carboxamide] | +++ (+++ ≥6)
O=C(NCCCN1CCC(F)CC1)c1ccc2c(c1)sc1nc(-c3ccc(C4CCNC4)cc3F)cn12 (centres unmarked) [Compound 479, 2-(2-fluoro-4-(pyrrolidin-3-yl)phenyl)-N-(3-(4-fluoropiperidin-1-yl)propyl)benzo[d]imidazo[2,1-b]thiazole-7-carboxamide] | +++ (+++ ≥6)
O=C(NCCCN1CCC(F)CC1)c1ccc2c(c1)sc1nc(-c3ccc(C4CCCCN4)cc3F)cn12 (centres unmarked) [Compound 480, 2-(2-fluoro-4-(piperidin-2-yl)phenyl)-N-(3-(4-fluoropiperidin-1-yl)propyl)benzo[d]imidazo[2,1-b]thiazole-7-carboxamide] | +++ (+++ ≥6)
O=C(NCCCN1CCC(F)CC1)c1ccc2c(c1)sc1nc(-c3ccc(C4COCCN4)cc3F)cn12 (centres unmarked) [Compound 481, 2-(2-fluoro-4-(morpholin-3-yl)phenyl)-N-(3-(4-fluoropiperidin-1-yl)propyl)benzo[d]imidazo[2,1-b]thiazole-7-carboxamide] | +++ (+++ ≥6)
O=C(NCCCN1CCC(F)CC1)c1ccc2c(c1)sc1nc(-c3ccc(-c4nc[nH]n4)cc3F)cn12 [Compound 483, 2-(2-fluoro-4-(1H-1,2,4-triazol-3-yl)phenyl)-N-(3-(4-fluoropiperidin-1-yl)propyl)benzo[d]imidazo[2,1-b]thiazole-7-carboxamide] | +++ (+++ ≥6)
O=C(NCCCN1CCC(F)CC1)c1ccc2c(c1)sc1nc(-c3ccc(C4CCCN4)c(F)c3)cn12 (centres unmarked) [Compound 484, 2-(3-fluoro-4-(pyrrolidin-2-yl)phenyl)-N-(3-(4-fluoropiperidin-1-yl)propyl)benzo[d]imidazo[2,1-b]thiazole-7-carboxamide] | +++ (+++ ≥6)
O=C(NCCCN1CCC(F)CC1)c1ccc2c(c1)sc1nc(-c3ccc(C4CC(F)(F)CN4)cc3F)cn12 (centres unmarked) [Compound 490, 2-(4-(4,4-difluoropyrrolidin-2-yl)-2-fluorophenyl)-N-(3-(4-fluoropiperidin-1-yl)propyl)benzo[d]imidazo[2,1-b]thiazole-7-carboxamide] | +++ (+++ ≥6)
CN1CCC[C@@H](NC(=O)c2ccc3c(c2)sc2nc(-c4ccc(C5CCCN5)cc4F)cn23)C1 (stereo partly drawn) [Compound 491R, 2-(2-fluoro-4-(pyrrolidin-2-yl)phenyl)-N—((R)-1-methylpiperidin-3-yl)benzo[d]imidazo[2,1-b]thiazole-7-carboxamide] | +++ (+++ ≥6)
CN1CCC[C@H](NC(=O)c2ccc3c(c2)sc2nc(-c4ccc(C5CCCN5)cc4F)cn23)C1 (stereo partly drawn) [Compound 491S, 2-(2-fluoro-4-(pyrrolidin-2-yl)phenyl)-N—((S)-1-methylpiperidin-3-yl)benzo[d]imidazo[2,1-b]thiazole-7-carboxamide] | +++ (+++ ≥6)
NC(=O)c1ccc2c(c1)sc1nc(-c3ccc(C4CCCN4)cc3F)cn12 (centres unmarked) [Compound 492, 2-(2-fluoro-4-(pyrrolidin-2-yl)phenyl)benzo[d]imidazo[2,1-b]thiazole-7-carboxamide] | +++ (+++ ≥6)
